Results on six compounds are retold here after patent publication US20030119814A1, “Novel prodrugs of N-H bond-containing compounds and methods of making thereof” (The University of Kansas, priority 2001, published 2003).

The conditions of series [1]: rabbits; due to high thiols in the blood; cited from earlier work.
Series [2] in a line: physchem. As to conditions: soybean oil, oil or lipid.
The nature of series [3]: Reversion of prodrug to parent on addition of 10 times molar excess of cysteine. In kind it is physicochemical. How it is done:
(§1) 1HNMR (300 MHz, DMSO-d6): □ 3.05 (d of d, 1H), 3.25 (d of d, 1H), 3.80 (broad), 4.15 (broad, 1H), 7.45 (t, 2H), 7.55 (t, 1H), 7.80 (d, 2H), 8.40 (broad), 9.60 (s, 1H). FAB+ 241.0 (M+1). […] When a 10 times molar excess of cysteine was added to the above solution, the model prodrug degraded (reverted to yield benzamide) with a half life of ˜20 to 30 minutes. In addition, the above benzamide-cysteine model prodrug had improved aqueous solubility compared to benzamide.
(§2) 1HNMR (300 MHz, CDCl3): □ 1.15 (t, 3H), 3.10 (d of d, 11H), 3.70 (d of d, 11H), 3.95 (m, 2H), 4.70 (m, 1H), 5.05 (d of d, 2H), 6.25 (d, 1H), 7.35 (broad s, 5H), 7.75 (m, 2H), 7.90 (m, 2H). […] When a 10 times molar excess of cysteine was added to the above solution, the model prodrug degraded (reverted to yield phthalimide) instantaneously (kinetics were not measurable).

The nature of series [4]: Aqueous solubility compared to parent compound. It is filed as physicochemical. The method, then:
as §1
(§3) ^1HNMR (300 MHz, DMSO-d6): □ 1.15 (t, 3H), 2.85 (d of d, 1H), 3.05 (d of d, 1H), 4.05 (m, 1H), 4.15 (q, 2H), 6.95 (s, 2H), 7.10 (s, 1H), 7.35 (m, 2H), 7.40 (broad s, 6H), 8.40 (broad). FAB+ 384.1 (M+1).

The nature of series [5]: Aqueous stability in buffer at 25 degrees Celsius. As to conditions: for aqueous degradation kinetics: buffered aqueous solution, Ionic Strength 0.15M; for half-life: 35 mM Acetate Buffer, Ionic Strength 0.15M (NaCl). In kind it is physicochemical. The method, then: as §1, §2, §3
[6] abbreviates: within a pH range of 4.0 to 7.0, 25 degrees Celsius, projected by Eyring Plot.

With `O=C1C2CC=CCC2C(=O)N1SC(Cl)(Cl)Cl` (stereo not shown) [Captan, N-trichloromethylthio-4-cyclohexane 1,2-dicarboximide], the “fate of active form in the body” value in series [1] is on record as “broken down in the body”.

Turning to `CCOC(=O)CCSN(CC1CN(c2ccc(N3CCOCC3)c(F)c2)C(=O)O1)C(C)=O` (stereo not shown) [Example 10], in series [2], the solubility was > 30 mg/mL.

`CC(=O)N(CC1CN(c2ccc(N3CCOCC3)c(F)c2)C(=O)O1)Sc1ccccc1` (stereo not shown) [Example 11]: the melting point amounted to 120.9 °C. Besides, the solubility in series [2] was > 10 mg/mL.

As for `NC(CSNC(=O)c1ccccc1)C(=O)O` (stereo not shown) [Example 13], the half-life in series [3] (phosphate buffer with 10 times molar excess of cysteine, 10 times molar excess of cysteine added to the phosphate buffer solution) lay in the range of 20 to 30 min. In series [4], the “aqueous solubility compared to parent compound” value is recorded as “improved”. Further, the aqueous degradation kinetics entry in series [5] is “Pseudo-first order degradation kinetics were observed”. In addition, the “pH of maximum stability” value in series [5] (setting [6]) worked out at 6.0.

In the case of `CCOC(=O)C(CSN1C(=O)c2ccccc2C1=O)NC(=O)OCc1ccccc1` (stereo not shown) [Example 15], the “degradation (reversion to parent) with cysteine” value in series [3] (10 times molar excess of cysteine added to the acetate buffer solution, kinetics not measurable) was “instantaneously”. Besides, the aqueous degradation kinetics result in series [5] is “did not show pseudo-first order kinetics”. Further, the half-life in series [5] (pH 3.5, 25 degrees Celsius) was 8 to 9 days. The “pH of maximum stability” value in series [5] (within a pH range of 3.5 to 5.0, 25 degrees Celsius) came to 3.5.

`CCOC(=O)C(N)CSNC(=O)N1c2ccccc2C=Cc2ccccc21` (stereo not shown) [Example 16]: in series [4], the “aqueous solubility compared to parent compound” value is “greatly improved”. Besides, the aqueous degradation kinetics result in series [5] was “Pseudo-first order degradation kinetics were observed”. For the same compound, the half-life in series [5] (pH 4.0, 25 degrees Celsius, projected by Eyring Plot) is ~181 days. Besides, the “pH of maximum stability” value in series [5] (setting [6]) amounted to 4.0.

The solubility is the concentration that dissolves in the medium under given conditions. Usually melting point stands for the temperature of the solid-liquid transition. The term half-life denotes how long it takes for the measured level to halve.
